Source: PubChem BioAssay (NCI)
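How tested: cells in 96-well plates exposed to compound for 48 hours at five concentrations. At the TGI there is no net growth.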

Legend:
Test in all cases: growth of human tumour cells (NCI), 48 h
[1] = system: OVCAR-5 ovarian
[2] = system: 786-0 renal
[3] = system: MCF7 breast
[4] = system: SNB-19 CNS
[5] = system: RPMI-8226 leukemia
[6] = system: HOP-62 NSCLC
[7] = system: SF-539 CNS
[8] = system: MDA-MB-435
[9] = system: OVCAR-8 ovarian
[10] = system: M14 melanoma
[11] = system: A549 NSCLC
[12] = system: SNB-75 CNS
[13] = system: OVCAR-3 ovarian
[14] = system: SK-MEL-5 melanoma
[15] = system: K-562 leukemia
[16] = system: TK-10 renal
[17] = system: SF-268 CNS
[18] = system: HS 578T breast
[19] = system: IGROV1 ovarian
[20] = system: LOX IMVI melanoma
[21] = system: NCI-H522 lung
[22] = system: A498 renal
[23] = system: T-47D breast
[24] = system: ACHN renal
[25] = system: NCI-H23 lung
[26] = system: HCT-15 colon
[27] = system: BT-549 breast
[28] = system: COLO 205 colon
[29] = system: U251 CNS
[30] = system: MALME-3M melanoma
[31] = system: SF-295 CNS
[32] = system: SK-MEL-2 melanoma
[33] = system: NCI-H226 lung
[34] = system: CAKI-1 renal
[35] = system: RXF 393 renal
[36] = system: MDA-MB-231 breast
[37] = system: KM12 colon
[38] = system: NCI-H460 lung
[39] = system: SW-620 colon
[40] = system: SK-MEL-28 melanoma
[41] = system: NCI/ADR-RES ovarian
[42] = system: UO-31 renal
[43] = system: PC-3 prostate
[44] = system: SK-OV-3 ovarian
[45] = system: UACC-62 melanoma
[46] = system: OVCAR-4 ovarian
[47] = system: UACC-257 melanoma
[48] = system: HCT-116 colon
[49] = system: EKVX NSCLC
[50] = system: HCC-2998 colon
[51] = system: HOP-92 NSCLC
[52] = system: SN12C renal
[53] = system: MDA-N
[54] = system: HT29 colon
[55] = system: DU-145 prostate
[56] = system: MOLT-4 leukemia
[57] = system: SR leukemia
[58] = system: CCRF-CEM leukemia

Measured: TGI

Cc1ccc(Nc2[nH]c(=O)[nH]c(=O)c2C)cc1Cl
59.7 µM: [3]
72.3 µM: [31]
not listed: [55] | [56] | [57] | [58]
> 100 µM: all other assays above

CCOP(=O)(Nc1ccccc1P(=O)(OCC)OCC)OCC
not listed: [7] | [20] | [23] | [33] | [52] | [57] | [58]
> 100 µM: all other assays above

CC1(C)OCC(C2OC(OC(=O)c3ccc([N+](=O)[O-])cc3)C3OC(C)(C)OC23)O1 (stereo not given)
54.3 µM: [12]
not listed: [18] | [23] | [51]
> 100 µM: all other assays above

COc1cc2cc(C(=O)N3CC(CCl)c4c3cc(NCCN)c3ccccc43)[nH]c2c(OC)c1OC (stereo not given)
0.0536 µM: [26]
0.0817 µM: [27]
0.564 µM: [40]
< 0.0136 µM: [22]
< 0.0134 µM: [30]
< 0.0181 µM: [16]
1.07 µM: [55] | [23]
< 0.0121 µM: [10]
< 0.0468 µM: [31]
0.0479 µM: [12]
< 0.017 µM: [52]
0.054 µM: [46]
< 0.0221 µM: [6]
1.42 µM: [44]
0.484 µM: [17]
0.0789 µM: [49]
< 0.0328 µM: [43]
0.0799 µM: [41]
0.311 µM: [39]
< 0.0203 µM: [53]
< 0.01 µM: [3] | [8] | [21] | [24] | [25] | [28] | [29] | [32] | [34] | [37] | [45] | [51]
> 100 µM: [57]
< 0.0132 µM: [42]
